Test results reported in PMC2572567 (Biochemical pharmacology, 2008).

Tests used:
heart rate = settings: Starling heart-lung preparation of the dog; cited from earlier work
[1] = target: T1, muscarinic receptors in heart (Rattus norvegicus, UniProt P10980); experiment: [3H]oxotremorine-M displacement assay, cardiac membranes; format: binding; settings: for [3H]Oxotremorine-M maximum displacement: 1 nM [3H]OXO, 21°C, 90 min, mean ± S.E.
T1 sequence (P10980 1-466): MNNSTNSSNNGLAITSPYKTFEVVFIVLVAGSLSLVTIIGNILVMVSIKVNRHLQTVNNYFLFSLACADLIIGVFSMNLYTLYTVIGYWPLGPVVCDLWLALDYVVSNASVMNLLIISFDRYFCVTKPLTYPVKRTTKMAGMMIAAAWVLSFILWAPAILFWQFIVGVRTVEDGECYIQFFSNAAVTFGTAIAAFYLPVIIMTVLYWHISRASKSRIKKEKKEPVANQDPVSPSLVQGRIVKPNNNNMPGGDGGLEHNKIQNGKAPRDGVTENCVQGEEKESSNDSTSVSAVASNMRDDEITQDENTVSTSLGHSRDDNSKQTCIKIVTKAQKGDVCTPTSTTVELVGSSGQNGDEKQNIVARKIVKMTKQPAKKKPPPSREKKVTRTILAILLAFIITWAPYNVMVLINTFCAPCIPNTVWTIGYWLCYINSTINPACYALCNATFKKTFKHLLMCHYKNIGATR

BChE in rat heart = BChE in rat heart (Rattus norvegicus, UniProt Q9JKC1); experiment: Radiometric cholinesterase assay, BChE activity in cardiac homogenates; format: biochemical
[2] = system: cardiac muscarinic receptors; settings: cited from earlier work
[3] = system: muscarinic receptors in cortex; experiment: [3H]oxotremorine-M displacement assay, cortical membranes; format: binding, rat; settings: for [3H]Oxotremorine-M maximum displacement: 1 nM [3H]OXO, 21°C, 90 min, mean ± S.E.
rats [4] = settings: cited from earlier work
rats [5] = settings: aged versus adult rats; cited from earlier work
AChE in rat heart = target: T2, AChE in rat heart (Rattus norvegicus, UniProt P37136); experiment: Radiometric cholinesterase assay, AChE activity in cardiac homogenates; format: biochemical; settings: heart and cortex (Tables 2 and 3)
T2 sequence (P37136 32-614): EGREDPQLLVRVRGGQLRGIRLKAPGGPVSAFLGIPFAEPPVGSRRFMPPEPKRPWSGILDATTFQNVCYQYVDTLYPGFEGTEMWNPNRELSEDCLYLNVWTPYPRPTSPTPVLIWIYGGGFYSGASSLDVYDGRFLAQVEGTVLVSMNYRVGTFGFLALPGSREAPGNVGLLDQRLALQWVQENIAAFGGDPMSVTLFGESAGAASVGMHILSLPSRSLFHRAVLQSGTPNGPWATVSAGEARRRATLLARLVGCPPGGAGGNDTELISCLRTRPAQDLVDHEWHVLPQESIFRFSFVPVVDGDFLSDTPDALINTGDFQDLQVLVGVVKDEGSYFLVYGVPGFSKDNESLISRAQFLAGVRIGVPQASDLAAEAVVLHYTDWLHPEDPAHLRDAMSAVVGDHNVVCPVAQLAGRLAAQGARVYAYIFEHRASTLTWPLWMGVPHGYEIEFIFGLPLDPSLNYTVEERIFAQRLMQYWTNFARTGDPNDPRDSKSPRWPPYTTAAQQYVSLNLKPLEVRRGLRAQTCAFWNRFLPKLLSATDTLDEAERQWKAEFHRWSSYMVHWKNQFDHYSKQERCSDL

BChE in rat heart, sequence (Q9JKC1 24-597): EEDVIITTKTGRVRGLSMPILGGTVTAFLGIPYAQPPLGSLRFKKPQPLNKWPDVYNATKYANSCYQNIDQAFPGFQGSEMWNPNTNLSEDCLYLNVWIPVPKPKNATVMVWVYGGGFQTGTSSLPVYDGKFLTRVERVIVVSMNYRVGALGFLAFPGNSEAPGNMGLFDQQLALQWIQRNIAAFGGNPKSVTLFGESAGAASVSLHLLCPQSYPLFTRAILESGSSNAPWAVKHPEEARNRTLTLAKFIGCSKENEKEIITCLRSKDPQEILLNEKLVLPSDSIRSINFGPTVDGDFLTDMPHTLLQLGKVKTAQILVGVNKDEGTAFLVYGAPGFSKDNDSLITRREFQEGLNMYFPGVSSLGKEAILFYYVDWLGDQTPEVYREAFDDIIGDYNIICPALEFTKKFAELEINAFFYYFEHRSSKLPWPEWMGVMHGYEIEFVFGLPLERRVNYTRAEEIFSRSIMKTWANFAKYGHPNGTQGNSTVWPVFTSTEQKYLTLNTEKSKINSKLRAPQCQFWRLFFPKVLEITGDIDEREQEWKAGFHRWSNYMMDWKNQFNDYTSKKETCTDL

C=CC[N+](C)(C)c1ccc(CCC(=O)CCc2ccc([N+](C)(C)CC=C)cc2)cc1.[Br-].[Br-] [BW 284C51, 1,5-bis (allyldimethylammoniumphenyl) pentane-3-dibromide]
Effect on heart rate (heart rate): had no effect

CCOP(=O)(OCC)Oc1nc(Cl)c(Cl)cc1Cl [Chlorpyrifos oxon, O,O′-diethyl-O-3,5,6-trichloro-2-pyridinyl phosphate]
[3H]Oxotremorine-M maximum displacement ([1]; adult heart membranes): 50 ± 3% | [3H]Oxotremorine-M maximum displacement ([1]; aging heart membranes): 39 ± 4% | Sensitivity of BChE relative to AChE to inhibition in vitro (BChE in rat heart; heart and cortex, both age groups): 3.5–12 times | Nature of interaction with cardiac muscarinic receptors ([3H]OXO binding sites) [2]: irreversible | [3H]Oxotremorine-M maximum displacement ([3]; adult cortex membranes): 51 ± 2% | [3H]Oxotremorine-M maximum displacement ([3]; aging cortex membranes): 49 ± 3%

CCOP(=S)(OCC)Oc1nc(Cl)c(Cl)cc1Cl [Chlorpyrifos, O,O′-diethyl-O-3,5,6-trichloro-2-pyridinyl phosphorothioate]
Displacement of [3H]OXO radioligand binding (in words) ([1]; heart, adult and aging rats, 30 pM-3 μM): did not displace | Displacement of [3H]OXO radioligand binding (in words) ([3]; cortex, adult and aging rats, 30 pM-3 μM): did not displace | oral LD50 (rats [4]): about 100 mg/kg | Sensitivity of aged rats to acute toxicity relative to adults (rats [5]): similar

COP(=O)(OC)Oc1ccc([N+](=O)[O-])cc1 [Methyl paraoxon, O,O′-dimethyl-p-nitrophenyl-phosphate]
[3H]Oxotremorine-M maximum displacement ([1]; adult heart membranes): 37 ± 3% | [3H]Oxotremorine-M maximum displacement ([1]; aging heart membranes): 29 ± 3% | [3H]Oxotremorine-M maximum displacement ([3]; adult cortex membranes): 33 ± 2% | [3H]Oxotremorine-M maximum displacement ([3]; aging cortex membranes): 36 ± 2% | [3H]OXO displacement IC50 in aging cortex, fold higher than adult cortex ([3]; aging versus adult cortex): ~ 10 fold | Sensitivity of AChE relative to BChE to inhibition (AChE in rat heart): ~ 2 fold

COP(=S)(OC)Oc1ccc([N+](=O)[O-])cc1 [Methyl parathion, O,O′-dimethyl-p-nitrophenyl-phosphorothioate]
[3H]Oxotremorine-M maximum displacement ([1]; adult heart membranes): 31 ± 3% | [3H]Oxotremorine-M maximum displacement ([1]; aging heart membranes): 26 ± 2% | Nature of interaction with cardiac muscarinic receptors ([3H]OXO binding sites) [2]: reversibly | [3H]Oxotremorine-M maximum displacement ([3]; adult cortex membranes): 22 ± 3% | [3H]Oxotremorine-M maximum displacement ([3]; aging cortex membranes): 20 ± 3% | oral LD50 (rats [4]): about 20 mg/kg

CC(C)NP(=O)(NC(C)C)OP(=O)(NC(C)C)NC(C)C [iso-OMPA, tetraisopropylpyrophosphoramide]
IC50 (BChE in rat heart): 200 nM | IC50 against BChE in heart, fold lower than in cortex (BChE in rat heart; adult and aging, heart versus cortex): ~ 10 fold

CCOP(=S)(OCC)Oc1ccc([N+](=O)[O-])cc1 [parathion]
Sensitivity of aged rats to acute toxicity relative to adults (rats [5]): 3 fold
